Reference: ChEMBL document CHEMBL1153605, “Synthesis and in vivo antidiabetic activity of novel dispiropyrrolidines through [3+2] cycloaddition reactions with thiazolidinedione and rhodanine derivatives” (2009)

Key:
Format in all cases: functional
Rattus norvegicus [1] = test: Antidiabetic activity in alloxan-induced diabetic Wistar rat model assessed as reduction in blood glucose level at 36 mg/kg, po administered once daily for 15 days measured after 1 hr postdose
Rattus norvegicus [2] = test: Antidiabetic activity in alloxan-induced diabetic Wistar rat model assessed as reduction in blood glucose level at 36 mg/kg, po administered once daily for 15 days measured after 3 hrs postdose
Rattus norvegicus [3] = test: Antidiabetic activity in alloxan-induced diabetic Wistar rat model assessed as reduction in blood glucose level at 36 mg/kg, po administered once daily for 15 days measured after 6 hrs postdose
Rattus norvegicus [4] = test: Reduction of serum GPT level in alloxan-induced diabetic Wistar rat model at 36 mg/kg, po administered once daily for 15 days measured on day 18
Rattus norvegicus [5] = test: Reduction of serum creatinine level in alloxan-induced diabetic Wistar rat model at 36 mg/kg, po administered once daily for 15 days measured on day 18
Rattus norvegicus [6] = test: Reduction of blood urea nitrogen level in alloxan-induced diabetic Wistar rat model at 36 mg/kg, po administered once daily for 15 days measured on day 18
Rattus norvegicus [7] = test: Reduction of liver GPT level in alloxan-induced diabetic Wistar rat model assessed per mg of protein at 36 mg/kg, po administered once daily for 15 days measured on day 18
Rattus norvegicus [8] = test: Reduction of liver ALP level in alloxan-induced diabetic Wistar rat model at 36 mg/kg, po administered once daily for 15 days measured on day 18

| SMILES | Activity (Rattus norvegicus [1]) [mg/dL] | Activity (Rattus norvegicus [2]) [mg/dL] | Activity (Rattus norvegicus [3]) [mg/dL] | Activity (Rattus norvegicus [4]) [U/ml] | Activity (Rattus norvegicus [5]) [mg/dL] | Activity (Rattus norvegicus [6]) [mg/dL] | Activity (Rattus norvegicus [7]) [U/mg protein] | Activity (Rattus norvegicus [8]) [KA/dl] |
| --- | --- | --- | --- | --- | --- | --- | --- | --- |
| CN1C[C@H](c2ccc(F)c(F)c2)[C@]2(SC(=O)NC2=O)[C@]12C(=O)Nc1ccccc12 | 134.5 | 123.5 | 115.3 | 132 | 2.1 | 35 | 582 | 41.3 |
| Cc1ccc([C@H]2CN(C)[C@@]3(C(=O)Nc4ccccc43)[C@@]23SC(=O)NC3=O)cc1 | 140.5 | 136.5 | 125.5 | 129.8 | 1.8 | 37.5 | 558 | 38.3 |
| COc1ccc([C@H]2CN(C)[C@@]3(C(=O)Nc4ccccc43)[C@@]23SC(=O)NC3=O)cc1OC | 133.5 | 123.8 | 115.8 | 140.5 | 1.8 | 41.8 | 698 | 48.5 |
| CN1C[C@H](c2ccc(F)c(F)c2)[C@]2(SC(=O)NC2=S)[C@]12C(=O)Nc1ccccc12 | 137.5 | 112.8 | 106.5 | 137.5 | 1.5 | 38.5 | 626 | 37 |
| CN1C[C@H](c2ccc(O)c(O)c2)[C@]2(SC(=O)NC2=S)[C@]12C(=O)Nc1ccccc12 | 175.5 | 158.5 | 120.5 | 142.8 | 2 | 39 | 646 | 43.8 |
| COc1ccc([C@H]2CN(C)[C@@]3(C(=O)Nc4ccccc43)[C@@]23SC(=O)NC3=S)cc1OC | 140.5 | 106.5 | 95.8 | 121 | 2.2 | 35.5 | 576 | 42.3 |
